Among the data in ChEMBL document CHEMBL4152278 (Eur J Med Chem, 2018) are EC50 values, retold here.

By EC50 is commonly meant the concentration that produces a half-maximal response.

Each structure is given as a SMILES string.

The experiment relates to Influenza A virus. The experiment can be described thus: Antiviral activity against Influenza A virus (A/WSN/1933(H1N1)) infected in MDCK cells expressing neuraminidase H275Y mutant assessed as protection against virus-induced cytopathic effect after 48 hrs by CellTiter96 aqueous non-radioactive cell proliferation assay. The format is functional, organism-based.
For the compound `CCCCCCCC(=O)/N=C(\N)N[C@H]1CC(C(=O)O)=C[C@@H](OC(CC)CC)[C@@H]1NC(C)=O`, the EC50 was found to be 6.6 µM.
`CCC(CC)O[C@@H]1C=C(C(=O)O)C[C@H](NC(=N)N)[C@H]1NC(C)=O`: the EC50 turned out to be 2.1 µM.
`CCC(CC)O[C@@H]1C=C(C(=O)O)C[C@H](N)[C@H]1NC(C)=O` [OSELTAMIVIR CARBOXYLATE]: the EC50 was 26 µM.
Consider `CC(=O)N[C@H]1[C@H]([C@H](O)[C@H](O)CO)OC(C(=O)O)=C[C@@H]1NC(=N)N` [ZANAMIVIR], for which the EC50 was 0.15 µM.
In the case of `COc1ccc2cc([C@H](C)C(=O)/N=C(\N)N[C@H]3C=C(C(=O)O)O[C@@H]([C@H](O)[C@H](O)CO)[C@@H]3NC(C)=O)ccc2c1`, the EC50 was found to be 0.9 µM.
`CCC(CC)O[C@@H]1C=C(C(=O)O)C[C@H](N/C(N)=N/C(=O)[C@@H](C)c2ccc3cc(OC)ccc3c2)[C@H]1NC(C)=O`: the EC50 was determined as 19 µM.
For the compound `CCCCCCCC(=O)/N=C(\N)N[C@H]1C=C(C(=O)O)O[C@@H]([C@H](O)[C@H](O)CO)[C@@H]1NC(C)=O`, the EC50 was found to be 0.48 µM.
